According to patent publication US20230346810A1, “ENDOGENOUS STABILIZATION OF CANNABINOIDS” (Abstrax Tech Inc., priority 2022, published 2023):

How the values were obtained:
[1] = UV-Visible spectroscopy of color purity of THC oils; format: physicochemical; details: 5% by weight CBDA added, versus sample without CBDA; FIG. 8
Procedure: The color purities of THC oils with and without acidic cannabinoids were measured using a LabTech BlueStar A UV-Vis Spectrophotometer. The data collection range was from 250 nm to 1100 nm at a scan rate of 3 nm per second. About 1 g of sample was added to scintillation vial followed by addition of 5 mL of ethanol. The solution was agitated for 2 min in order to fully dissolve the oil and transferred to a UV-Vis quartz cuvette. An ethanol background was collected prior to running the samples to reduce solvent.

[2] = Color change / oxidation of cannabinoid oils on exposure to air (visual); format: physicochemical; details: about 5% CBDA by weight added, homogenized under mild heat (about 70° C.)

| Structure (SMILES) | visible absorption after CBDA addition (UV-Visible spectra) [1] | color of solution after CBDA addition [2] |
| --- | --- | --- |
| CCCCCc1cc(O)c2c(c1)OC(C)(C)[C@@H]1CC=C(C)C[C@@H]21 [Sample D8-THC, Δ8-tetrahydrocannabinol] | less visible absorption |  |
| CCCCCc1cc(O)c2c(c1)OC(C)(C)[C@@H]1CCC(C)=C[C@@H]21 [Sample D9-THC, Δ^9-tetrahydrocannabinol] |  | yellow solution with minimal discoloration |
